Structures are written as SMILES. Where two headings read alike, the source gives them in different places.

In experiment [1] the test system is phospho AKT (ser473) in MDA-MB-468 cells. Nature of the experiment: Detection of phospho AKT (ser473) in MDA-MB-468 cells. Type of experiment: cell-based. Conditions: Homo sapiens, Test (b), 2 hours incubation, approximate value, read-out: IC50 versus cellular phospho AKT (ser473) in MDA-MB-468 cells. The method, then: (b) Protocol for Detection of Phospho AKT (ser473) in MDA-MB-468 Cells
MDA-MB-468 cells (human breast adenocarcinoma ATCC HTB 132) are seeded into Greiner 384 well black flat-bottomed plates by automated cell culture robot (Selec T). Cells can also be maintained manually and seeded into plates using multidrop or Wellmate. Cells seeded at 1500 cell/well in 40 μl of DMEN containing 10% FCS and 1% glutamine. Cell plates are incubated for 18 hours in a 37° C. incubator.
Compounds are dosed onto cells using an Echo acoustic dispenser, which dispenses nl quantities of compound or DMSO. Compounds are dosed in a 12 point concentration range from 30 μM top dose, 28 compounds are dosed on one plate. There are 17 DMSO only positive control wells per plate, and 16 negative control well which have been dosed with a concentration of reference compound that will knockout the pAKT signal.
Plates are incubated at 37° C. for 2 hours, cells are the fixed by the addition of 10 μl of a 3.7% Formaldehyde solution in a fume cupboard using a Wellmate.
After 30 min to allow for fixation, the fixative and media are removed and the plates washed with Proclin PBS/A using Tecan PW384 plate washer in a fume cupboard. Wells are blocked and permeabilised with the addition of 40 μl of PBS containing 0.5% Tween20 and 1% marvel using a Wellmate and incubated for 60 min at room temperature.
Permeabilisation and blocking buffer removed using Tecan PW384 plate washer, then 20 μl primary antibody solution added using a Wellmate. The primary antibody solution is a 1:500 dilution of Rabbit anti-phospho AKT Ser 473 (Cell signalling technologies catalogue number #3787) in PBS/T containing 1% marvel (dried milk powder) and incubated overnight at 4° C.
Plates are washed using a Tecan PW384 plate washer three times with Phosphate Buffered Saline+0.05% (v/v) Polysorbate20 and Proclin300 (Supelco). 20 μl of secondary antibody solution is then added to each well using a Wellmate and incubated for 1 hour at Room Temp. The secondary antibody solution is a 1:1000 dilution of Alexa Fluor 488 anti-Rabbit (Molecular Probes cat no A11008) diluted in Phosphate Buffered Saline+0.05% (v/v) Polysorbate20 containing 1% marvel. Plates are washed three times as before then […] added to each well and plates sealed with black plate sealer.
The plates are read on an Acumen reader as soon as possible. Using this system IC50 values can be generated and quality of plates determined by control wells. Reference compounds are run each time to monitor assay performance.

For a further experiment, the target named is PI3Kβ (Homo sapiens, UniProt P42338). Put plainly: In vitro enzyme inhibition assay (Kinase Glo), PI3Kβ. The experiment is classed as biochemical. The method, then:
(§1) (a) In Vitro Enzyme Inhibition Assay
(§2) The inhibition of PI3Kβ, PI3Kα, PI3Kγ and PI3Kδ was evaluated in a Kinase Glo based enzyme activity assay using human recombinant enzymes. The assay measures depletion of ATP after incubation with enzyme, PIP2 and ATP plus compound. ATP at the end of the reaction is detected by addition of Kinase Glo reagent, in this the Ultra Glo™ luciferase (Promega) uses the ATP as a substrate to catalyze the mono-oxygenation of luciferin and the generation of light. A direct relationship exists between the luminescence measured with the Kinase-Glo Plus Reagent and the amount of ATP remaining in a completed kinase reaction and luminescence is inversely related to kinase activity. Twelve different compound concentrations were tested and raw data from the inhibition of PI3Kβ, PI3Kα, PI3Kγ and PI3Kδ was plotted versus inhibitor concentration.
(§3) Compounds in 100% DMSO were added to assay plates by acoustic dispensing. PI3β was added in a Tris buffer (50 mM Tris pH7.4, 0.05% CHAPS, 2.1 mM DTT, and 10 mM MgCl2) and allowed to preincubate with compound for 20 min prior to addition of substrate solution containing PIP2 and ATP. The enzyme reaction was stopped after 80 min by the addition of Kinase Glo detection solution. […] The final concentration of DMSO, ATP and PIP2 in the assay were, 1%, 8 μM, and 80 μM respectively.
(§4) IC50 values were calculated using a log curve fitting to a non-linear regression package, fitting raw data to inhibitor concentration.
(In Kinase-Glo more light means more ATP remaining.)

The next experiment concerns the target PI3Kδ (Homo sapiens, UniProt O00329). Nature of the experiment: In vitro enzyme inhibition assay (Kinase Glo), PI3Kδ. Type of experiment: biochemical. Conditions: Test (a). The method, then: as §1, §2, §3, §4
Where [2] appears, read: Test (a), approximate value, read-out: IC50 versus PI3Kβ.
The mark [3] stands for this setting: Test (a), human recombinant enzyme, ATP 8 μM, PIP2 80 μM, Table A, read-out: PI3Kβ inhibition, IC50.
Where [4] appears, read: approximate value, read-out: IC50 versus PI3Kδ.
The mark [5] stands for this setting: human recombinant enzyme, Table A, read-out: PI3Kδ inhibition, IC50.

PI3Kδ, sequence (O00329 whole entry): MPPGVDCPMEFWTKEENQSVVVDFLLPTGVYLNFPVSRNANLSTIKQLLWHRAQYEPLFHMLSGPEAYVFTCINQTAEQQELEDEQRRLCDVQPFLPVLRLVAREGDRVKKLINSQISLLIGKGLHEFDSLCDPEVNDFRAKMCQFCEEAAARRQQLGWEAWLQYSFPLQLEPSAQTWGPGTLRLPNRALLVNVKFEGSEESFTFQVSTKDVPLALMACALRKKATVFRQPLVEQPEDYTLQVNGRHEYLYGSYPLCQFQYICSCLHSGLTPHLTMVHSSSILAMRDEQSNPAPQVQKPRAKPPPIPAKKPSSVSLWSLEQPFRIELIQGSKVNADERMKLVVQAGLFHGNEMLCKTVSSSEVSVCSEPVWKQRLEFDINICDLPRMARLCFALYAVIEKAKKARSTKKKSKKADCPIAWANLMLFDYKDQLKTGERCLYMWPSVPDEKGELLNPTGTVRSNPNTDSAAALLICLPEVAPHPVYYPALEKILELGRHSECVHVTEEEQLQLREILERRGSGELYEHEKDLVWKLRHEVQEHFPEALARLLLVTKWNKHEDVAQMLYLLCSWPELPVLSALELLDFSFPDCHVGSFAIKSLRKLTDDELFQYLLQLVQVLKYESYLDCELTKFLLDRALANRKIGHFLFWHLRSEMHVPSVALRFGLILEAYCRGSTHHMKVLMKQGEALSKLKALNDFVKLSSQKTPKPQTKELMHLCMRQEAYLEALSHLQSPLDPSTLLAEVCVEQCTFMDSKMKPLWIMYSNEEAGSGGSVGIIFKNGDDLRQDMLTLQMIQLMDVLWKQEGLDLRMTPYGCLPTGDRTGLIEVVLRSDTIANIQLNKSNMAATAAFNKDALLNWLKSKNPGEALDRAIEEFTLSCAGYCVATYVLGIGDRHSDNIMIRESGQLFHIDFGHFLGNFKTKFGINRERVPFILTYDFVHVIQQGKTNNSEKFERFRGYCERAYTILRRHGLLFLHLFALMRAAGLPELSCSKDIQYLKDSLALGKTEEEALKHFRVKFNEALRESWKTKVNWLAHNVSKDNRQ
PI3Kδ, sequence (P27986 whole entry partner): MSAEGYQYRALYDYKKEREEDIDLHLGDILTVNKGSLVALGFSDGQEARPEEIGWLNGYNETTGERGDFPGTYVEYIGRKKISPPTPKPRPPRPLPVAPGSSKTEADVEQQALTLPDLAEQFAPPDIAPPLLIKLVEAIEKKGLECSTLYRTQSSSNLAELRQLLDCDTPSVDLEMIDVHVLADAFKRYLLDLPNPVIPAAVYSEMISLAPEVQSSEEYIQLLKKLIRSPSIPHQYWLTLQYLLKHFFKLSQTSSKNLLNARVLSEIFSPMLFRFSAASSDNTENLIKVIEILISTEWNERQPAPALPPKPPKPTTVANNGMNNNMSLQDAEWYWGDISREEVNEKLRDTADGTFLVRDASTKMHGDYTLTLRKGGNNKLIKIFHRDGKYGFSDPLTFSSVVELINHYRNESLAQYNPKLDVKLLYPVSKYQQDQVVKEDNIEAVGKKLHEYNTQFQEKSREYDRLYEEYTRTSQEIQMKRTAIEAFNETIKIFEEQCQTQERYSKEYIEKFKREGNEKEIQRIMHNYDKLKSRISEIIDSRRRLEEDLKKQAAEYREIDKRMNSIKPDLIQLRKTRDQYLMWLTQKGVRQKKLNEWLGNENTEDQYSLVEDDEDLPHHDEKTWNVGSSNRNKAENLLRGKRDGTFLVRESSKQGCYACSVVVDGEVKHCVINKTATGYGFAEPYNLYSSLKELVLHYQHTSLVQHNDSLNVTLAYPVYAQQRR
PI3Kβ, sequence (P42338 whole entry): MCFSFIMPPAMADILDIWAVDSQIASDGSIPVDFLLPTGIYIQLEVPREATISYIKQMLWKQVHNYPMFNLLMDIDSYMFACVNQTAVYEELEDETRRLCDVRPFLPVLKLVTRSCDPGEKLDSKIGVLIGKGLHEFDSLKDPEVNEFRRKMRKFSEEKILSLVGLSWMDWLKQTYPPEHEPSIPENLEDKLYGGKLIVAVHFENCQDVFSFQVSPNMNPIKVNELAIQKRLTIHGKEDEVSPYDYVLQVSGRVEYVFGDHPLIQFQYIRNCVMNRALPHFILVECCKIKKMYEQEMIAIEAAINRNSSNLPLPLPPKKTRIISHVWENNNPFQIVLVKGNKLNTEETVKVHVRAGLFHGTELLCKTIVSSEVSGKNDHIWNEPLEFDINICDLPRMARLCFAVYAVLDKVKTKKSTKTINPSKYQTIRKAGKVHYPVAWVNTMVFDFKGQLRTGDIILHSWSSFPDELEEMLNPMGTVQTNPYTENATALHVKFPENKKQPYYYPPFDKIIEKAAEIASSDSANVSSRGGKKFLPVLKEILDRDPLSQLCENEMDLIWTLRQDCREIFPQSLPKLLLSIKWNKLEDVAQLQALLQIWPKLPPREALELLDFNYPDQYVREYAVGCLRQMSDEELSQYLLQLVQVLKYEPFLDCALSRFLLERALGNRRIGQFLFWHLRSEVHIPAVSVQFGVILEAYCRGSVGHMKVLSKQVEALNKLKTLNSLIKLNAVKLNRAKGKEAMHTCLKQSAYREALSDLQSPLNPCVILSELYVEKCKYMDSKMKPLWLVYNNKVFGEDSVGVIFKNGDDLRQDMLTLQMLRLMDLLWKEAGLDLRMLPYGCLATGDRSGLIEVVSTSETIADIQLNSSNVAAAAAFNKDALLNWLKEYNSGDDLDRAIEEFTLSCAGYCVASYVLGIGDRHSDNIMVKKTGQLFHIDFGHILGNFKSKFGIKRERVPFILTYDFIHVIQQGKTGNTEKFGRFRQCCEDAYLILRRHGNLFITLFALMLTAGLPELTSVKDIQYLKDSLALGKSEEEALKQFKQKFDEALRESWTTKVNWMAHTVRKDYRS
PI3Kβ, sequence (P27986 whole entry partner): as the sequence (P27986 whole entry partner) above

Broadly, the IC50 is the point on the concentration scale where inhibition reaches its midpoint. `COc1cccc(N2CCC[C@@H]2c2cc(C(=O)N3CCOCC3)cc3c(=O)cc(N4CCOCC4)oc23)c1` [Example 1.11, 8-[(2R)-(1-(3-methoxyphenyl)pyrrolidin-2-yl)]-6-(morpholine-4-carbonyl)-2-morpholino-4H-chromen-4-one]: the IC50 in experiment [1] is about 8 nM; on PI3Kβ (setting [2]), about 9 nM; at PI3Kβ (setting [3]), 9 nM; at PI3Kδ (setting [4]) it was about 15 nM; on PI3Kδ (setting [5]), 15 nM.

Consider `O=C(c1cc(C2CCCN2c2cc(F)cc(F)c2)c2oc(N3CCOCC3)cc(=O)c2c1)N1CCC(O)CC1` (stereo not shown) [Example 1.02, 8-(1-(3,5-difluorophenyl)pyrrolidin-2-yl)-6-(4-hydroxypiperidine-1-carbonyl)-2-morpholino-4H-chromen-4-one], for which, on PI3Kδ (setting [5]), the IC50 amounted to 14 nM.

In the case of `C[C@@H]1CN(c2cc(=O)c3cc(C(=O)N4CCOCC4)cc(C4CCCN4c4cccc(F)c4)c3o2)CCO1` (stereo partly drawn) [Example 3.02, 8-(1-(3-fluorophenyl)pyrrolidin-2-yl)-2-((R)-2-methylmorpholino)-6-(morpholine-4-carbonyl)-4H-chromen-4-one], the IC50 in experiment [1] was about 3 nM; on PI3Kβ (setting [2]), about 14 nM; at PI3Kβ (setting [3]), 14 nM; on PI3Kδ (setting [4]) it was about 10 nM; on PI3Kδ (setting [5]) it was 10 nM.

Consider `O=C(c1cc([C@H]2CCCN2c2cccc(F)c2)c2oc(N3CCOCC3)cc(=O)c2c1)N1CCOCC1` [Example 1.07, 8-[(2R)-(1-(3-fluorophenyl)pyrrolidin-2-yl)]-6-(morpholine-4-carbonyl)-2-morpholino-4H-chromen-4-one], for which the IC50 in experiment [1] was about 2 nM; at PI3Kβ (IC50 versus PI3Kβ), about 6 nM; at PI3Kβ (setting [3]), 6 nM; at PI3Kδ (setting [4]) it was about 5 nM; at PI3Kδ (setting [5]), 5 nM.

Regarding `O=C(c1cc(C2CCCN2c2cc(F)cc(F)c2)c2oc(N3CCOCC3)cc(=O)c2c1)N1CCOCC1` (racemic) [Example 1.03, 8-(1-(3,5-difluorophenyl)pyrrolidin-2-yl)-6-(morpholine-4-carbonyl)-2-morpholino-4H-chromen-4-one], the half-inhibitory concentration (IC50) is about 2 nM in experiment [1]; about 12 nM on PI3Kβ (setting [2]); 12 nM on PI3Kβ (setting [3]); about 22 nM on PI3Kδ (setting [4]); 22 nM on PI3Kδ (setting [5]).

For the compound `CN1CCN(C(=O)c2cc([C@H]3CCCN3c3cc(F)cc(F)c3)c3oc(N4CCOCC4)cc(=O)c3c2)CC1` [Example 1.09, 8-[(2R)-(1-(3,5-difluorophenyl)pyrrolidin-2-yl)]-6-(4-methylpiperazine-1-carbonyl)-2-morpholino-4H-chromen-4-one], the IC50 on PI3Kδ (setting [5]) was 14 nM.

Turning to `CN(C)C(=O)c1cc(C2CCCN2c2ccc(F)cc2)c2oc(N3CCOCC3)cc(=O)c2c1` (racemic) [Example 2.04, 8-(1-(4-fluorophenyl)pyrrolidin-2-yl)-N,N-dimethyl-2-morpholino-4-oxo-4H-chromene-6-carboxamide], the IC50 on PI3Kβ (setting [3]) turned out to be 17 nM; on PI3Kδ (setting [5]), 19 nM.

For `CN(C)C(=O)c1cc(C2CCCN2c2cc(F)cc(F)c2)c2oc(N3CCOCC3)cc(=O)c2c1` (stereo not shown) [Example 1.00, 8-[1-(3,5-difluorophenyl)pyrrolidin-2-yl]-N,N-dimethyl-2-morpholino-4-oxo-4H-chromene-6-carboxamide], at PI3Kδ (setting [5]), the IC50 came out at 15 nM.

Consider `CN(C)C(=O)c1cc(C2CCCN2c2cccc(F)c2)c2oc(N3CCOCC3)cc(=O)c2c1` (stereo not shown) [Example 2.00, 8-(1-(3-fluorophenyl)pyrrolidin-2-yl)-N,N-dimethyl-2-morpholino-4-oxo-4H-chromene-6-carboxamide], for which the IC50 in experiment [1] was about 2 nM; at PI3Kβ (setting [2]) it was about 9 nM; at PI3Kβ (read-out: PI3Kβ inhibition, IC50) it was 9 nM; on PI3Kδ (setting [4]), about 12 nM; on PI3Kδ (setting [5]), 12 nM.

Take `COc1cccc(N2CCCC2c2cc(C(=O)N(C)C)cc3c(=O)cc(N4CCOCC4)oc23)c1` (stereo not shown) [Example 2.01, 8-(1-(3-methoxyphenyl)pyrrolidin-2-yl)-N,N-dimethyl-2-morpholino-4-oxo-4H-chromene-6-carboxamide]: the IC50 was found to be 10 nM at PI3Kβ (setting [3]) and 15 nM at PI3Kδ (setting [5]).

Take `C[C@@H]1CN(c2cc(=O)c3cc(C(=O)N4CCOCC4)cc(C4CCCN4c4ccccc4)c3o2)CCO1` (stereo partly drawn) [Example 3.01, 2-((R)-2-methylmorpholino)-6-(morpholine-4-carbonyl)-8-(1-phenylpyrrolidin-2-yl)-4H-chromen-4-one]: the IC50 is about 6 nM in experiment [1], 14 nM at PI3Kβ (setting [3]) and 15 nM on PI3Kδ (setting [5]).

As to `CN(C)C(=O)c1cc([C@H]2CCCN2c2cccc(F)c2)c2oc(N3CCOCC3)cc(=O)c2c1` [Example 1.06, 8-[(2R)-(1-(3-fluorophenyl)pyrrolidin-2-yl)]-N,N-dimethyl-2-morpholino-4-oxo-4H-chromene-6-carboxamide], the IC50 in experiment [1] was about 1 nM; at PI3Kβ (setting [2]) it was about 7 nM; at PI3Kβ (setting [3]) it was 7 nM; at PI3Kδ (setting [4]) it was about 7 nM; at PI3Kδ (setting [5]), 7 nM.

As to `O=C(c1cc(C2CCCN2c2ccc(F)cc2)c2oc(N3CCOCC3)cc(=O)c2c1)N1CCOCC1` (racemic) [Example 1.12, 8-(1-(4-fluorophenyl)pyrrolidin-2-yl)-6-(morpholine-4-carbonyl)-2-morpholino-4H-chromen-4-one], the IC50 came to 15 nM at PI3Kβ (setting [3]) and 32 nM at PI3Kδ (setting [5]).

Turning to `C[C@@H]1CN(c2cc(=O)c3cc(C(=O)N4CCOCC4)cc(C4CCCN4c4cc(F)cc(F)c4)c3o2)CCO1` (stereo partly drawn) [Example 3.00, 8-(1-(3,5-difluorophenyl)pyrrolidin-2-yl)-2-((R)-2-methylmorpholino)-6-(morpholine-4-carbonyl)-4H-chromen-4-one], the IC50 was about 3 nM in experiment [1]; about 11 nM at PI3Kβ (setting [2]); 11 nM at PI3Kβ (setting [3]); about 18 nM on PI3Kδ (setting [4]); 18 nM at PI3Kδ (setting [5]).

For `O=C(c1cc(C2CCCN2c2cc(F)cc(F)c2)c2oc(N3CCOCC3)cc(=O)c2c1)N1CC[S+]([O-])CC1` (stereo not shown) [Example 1.04, 8-[1-(3,5-difluorophenyl)pyrrolidin-2-yl]-2-morpholino-6-[(1-oxidothiomorpholin-4-yl)carbonyl]-4H-chromen-4-one], the IC50 in experiment [1] was about 5 nM; on PI3Kβ (setting [2]), about 11 nM; on PI3Kβ (setting [3]), 11 nM; at PI3Kδ (setting [4]) it was about 24 nM; on PI3Kδ (setting [5]) it was 24 nM.

Turning to `CN(CCO)C(=O)c1cc(C2CCCN2c2cc(F)cc(F)c2)c2oc(N3CCOCC3)cc(=O)c2c1` (stereo not shown) [Example 1.01, 8-(1-(3,5-difluorophenyl)pyrrolidin-2-yl)-N-(2-hydroxyethyl)-N-methyl-2-morpholino-4-oxo-4H-chromene-6-carboxamide], at PI3Kδ (setting [5]), the IC50 was 16 nM.

Turning to `CN(C)C(=O)c1cc(C2CCCN2c2cc(F)cc(C#N)c2)c2oc(N3CCOCC3)cc(=O)c2c1` (stereo not shown) [Example 2.02, 8-(1-(3-cyano-5-fluorophenyl)pyrrolidin-2-yl)-N,N-dimethyl-2-morpholino-4-oxo-4H-chromene-6-carboxamide], the IC50 on PI3Kβ (setting [3]) stood at 13 nM; at PI3Kδ (setting [5]) it was 16 nM.

Values taken from patent US8530470B2, “Chromenone derivatives” (Astrazeneca AB, priority 2011, dated 2013).
